Test results reported in patent US6207399A, “Methods of determining endogenous thrombin potential (ETP) and thrombin substrates for use in said methods” (Hemker; Hendrik Coenraad, priority 1995, dated 2001).
Blank lines part the entries; values can stand above or below the molecule they belong to. Peptide text beside a SMILES is read from it. * marks the point of attachment. pNA = O=[N+]([O-])c1ccc(N*)cc1

Legend:
euglobulin thrombin = molecular target: T1, euglobulin thrombin (Homo sapiens, UniProt P00734); experiment: Decay constants of thrombin in plasma; assay type: biochemical
T1 construct: The euglobulin thrombin fraction was prepared from defibrinated human plasma; from tissue; host or cells: defibrinated human plasma (euglobulin fraction, acid precipitation, method of Josso and Prou-Wartelle)
Description: (§1) To this mixture was added 10 μL of a thrombin preparation to achieve a final concentration of 100 nM. At regular time intervals (5-10 s) 10 μL samples were subsampled into 490 μL buffer B which contained 200 μM of S2238 to determine thrombin activity. After 2 min the reaction was stopped by adding 300 μL 1M citric acid. The moment of sampling and stopping were recorded on a personal computer with pushbutton-equipped pipettes. The optical density was then read at 405 nm and the obtained amidolytic activities were used to calculate the decay constants. The obtained decay constant is the sum of the decay constants of the reaction of thrombin with antithrombin III (k1) and α2 -macroglobulin (k2).
as §1, with “Decay constants of thrombin in plasma: To 120 μL defibrinated plasma was added: 50 μL of buffer A which contained the substances to be tested. To” for “To”, “was” for “was then”

thrombin = thrombin (Homo sapiens, UniProt P00734); experiment: Kinetic parameters of hydrolysis of the substrates by thrombin in buffer A at 37° C. (Example 4, Table 3); assay type: biochemical; design: Pure human α-thrombin; gift of Dr. T. Lindhout (University of Limburg, Maastricht); conditions: buffer A, 37° C.
Description: (§2) Kinetic parameters: The hydrolysis experiments were run in buffer A at 37° C. The liberation of p-nitroaniline was monitored at 405 nm in a dual wavelength (405-546 nm) spectrophotometer made in our workshop, using a personal computer for data recording. In a polystyrene microcuvette (total volume 500 μL), buffer A and substrate solution were added to obtain a final substrate concentration between 200 to 2000 μM. After 5 min of incubation at 37° C., enzyme solution was added to achieve a final concentration between 0.5 to 50 nM. The measurement was carried out at 37° C. in a thermostated cuvette-holder. The Michaelis constant (Km) and the catalytic constant (kcat) were obtained by measuring the initial reaction velocities at different substrate concentrations. The data obtained were fitted by linear regression on the Michaelis-Menten equation.
(§3) Kinetic parameters: The Km and kcat values for each substrate were determined at an enzyme concentration of 0.5-50 nM (thrombin) and 50 nM factor Xa. From the initial reaction velocities, measured for at least six substrate concentrations between 200 and 2000 μM, the Km and kcat values were calculated by linear regression on the Michaelis-Menten curve. Table 3 gives an overview of the kinetic parameters of the different substrates hydrolyzed by thrombin and by factor Xa in buffer A.

[1] = tested on: thrombin generation in tissue factor triggered plasma; experiment: Manual determination of thrombin generation in plasma (subsampling method) and calculated prothrombinase activity; assay type: biochemical, human; conditions: for influence on the prothrombinase complex / coagulation cascade: calculated from decay constants and manual thrombin generation curves
Description: Manual determination of thrombin generation in plasma: Extrinsic pathway: To 480 μL defibrinated plasma were added: 172 μL buffer A which contains the substrate at concentrations between 0 to 2000 μM and 20 μL of a 54 μM phospholipid solution (final concentration: 1.5 μM). After incubation of 4 min at 37° C., 24 μL tissue factor (undiluted) was added. Thrombin formation started at zero time by adding 24 μL of a 0.5 M CaCl2 solution (final concentration: 16.67 mM). At regular time intervals of 12 s samples of 10 μL were subsampled as described above. From the amidolytic activities thus obtained, the thrombin generation curve can be drawn. […] Intrinsic pathway: To 480 μL defibrinated plasma were added: 168 μL buffer A which contains the substrate at concentrations between 0 to 1000 μM and 48 μL Actin FS (undiluted). This mixture was intensively mixed and incubated for 4 min at 37° C. Thrombin generation was started at zero time by adding 24 μL of a 0.5 M CaCl2 solution (final concentration: 16.67 mM).
Influence of the substrate on the prothrombinase-complex: With the obtained decay constants and from the curves obtained by the subsampling method we calculated the course of prothrombin conversion and the course of prothrombinase concentration.
Manual determination of thrombin generation in plasma: Extrinsic pathway: To 480 μL defibrinated plasma were added: 172 μL buffer A which contained the substrate at concentrations between 0 to 2000 μM and 20 μL of a 54 μM phospholipid solution (final concentration: 1.5 μM). After incubation for 4 min at 37° C., 24 μL tissue factor (undiluted) was added. Thrombin formation started at zero time by adding 24 μL of a 0.5 M CaCl2 solution (final concentration: 16.67 mM). At regular time intervals of 12 s samples of 10 μL were subsampled as described above. From the amidolytic activities thus obtained, the thrombin generation curve can be drawn.
Influence of the substrate on the prothrombinase-compzex: With the obtained decay constants and from the curves obtained by the subsampling method we calculated the course of prothrombin conversion and the course of prothrombinase concentration.

factor Xa = molecular target: T2, factor Xa (Homo sapiens, UniProt P00742); experiment: Kinetic parameters of hydrolysis of the substrates by factor Xa in buffer A at 37° C. (Example 4, Table 3); assay type: biochemical; conditions: buffer A, 37° C., 50 nM factor Xa
T2 construct: human factor Xa samples; gift of Dr. T. Lindhout (University of Limburg, Maastricht)
T2 sequence (P00742 41-179 limits assumed): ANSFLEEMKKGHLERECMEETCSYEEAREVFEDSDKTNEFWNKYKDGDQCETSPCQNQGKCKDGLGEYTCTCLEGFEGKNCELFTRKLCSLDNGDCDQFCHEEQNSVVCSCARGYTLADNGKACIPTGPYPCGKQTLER
T2 sequence (P00742 235-488 limits assumed): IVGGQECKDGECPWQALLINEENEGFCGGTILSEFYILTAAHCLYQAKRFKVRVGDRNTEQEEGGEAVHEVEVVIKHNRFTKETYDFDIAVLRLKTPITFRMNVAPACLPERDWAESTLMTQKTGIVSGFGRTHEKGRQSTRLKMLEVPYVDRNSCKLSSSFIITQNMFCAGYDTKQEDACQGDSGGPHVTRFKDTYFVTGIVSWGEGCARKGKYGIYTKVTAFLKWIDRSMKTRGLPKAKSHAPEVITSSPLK
Description: as §2, §3

SMILES: CC(C)[C@H](NC(=O)CNC(=O)CNC(=O)[C@@H](N)CCC(=O)O)C(=O)N[C@@H](CCCNC(=N)N)C(=O)Nc1ccc([N+](=O)[O-])cc1 [2HCl.H-Glu-Gly-Gly-Val-Arg-pNA] (H-EGGVR-pNA)
(k1,corr) = k1,corr divided by μM AT-III (euglobulin thrombin; [S] 200 μM in plasma): 20380 M⁻¹ s⁻¹
k1,corr : k1 after correcting for k2,M and 0.170 (euglobulin thrombin; [S] 200 μM in plasma): 1.769 min⁻¹
k1 : AT-III dependent decay of thrombin (euglobulin thrombin; [S] 200 μM in plasma): 1.946 min⁻¹
k2 : α2 M dependent decay of thrombin (euglobulin thrombin; [S] 200 μM in plasma): 0.213 min⁻¹
koverall (euglobulin thrombin; [S] 200 μM in plasma): 2.159 min⁻¹
t1/2 (euglobulin thrombin; [S] 200 μM in plasma): 19.26 s
(k1,corr) = k1,corr divided by μM AT-III (euglobulin thrombin; [S] 500 μM in plasma): 19150 M⁻¹ s⁻¹
k1,corr : k1 after correcting for k2,M and 0.170 (euglobulin thrombin; [S] 500 μM in plasma): 1.662 min⁻¹
k1 : AT-III dependent decay of thrombin (euglobulin thrombin; [S] 500 μM in plasma): 1.733 min⁻¹
k2 : α2 M dependent decay of thrombin (euglobulin thrombin; [S] 500 μM in plasma): 0.291 min⁻¹
koverall (euglobulin thrombin; [S] 500 μM in plasma): 2.024 min⁻¹
t1/2 (euglobulin thrombin; [S] 500 μM in plasma): 21.04 s
(k1,corr) = k1,corr divided by μM AT-III (euglobulin thrombin; [S] 1000 μM in plasma): 16400 M⁻¹ s⁻¹
k1,corr : k1 after correcting for k2,M and 0.170 (euglobulin thrombin; [S] 1000 μM in plasma): 1.427 min⁻¹
k1 : AT-III dependent decay of thrombin (euglobulin thrombin; [S] 1000 μM in plasma): 1.594 min⁻¹
k2 : α2 M dependent decay of thrombin (euglobulin thrombin; [S] 1000 μM in plasma): 0.172 min⁻¹
koverall (euglobulin thrombin; [S] 1000 μM in plasma): 1.766 min⁻¹
t1/2 (euglobulin thrombin; [S] 1000 μM in plasma): 23.56 s
Km (thrombin): 1010 µM
Thrombin kcat (thrombin): 0.55 s⁻¹
Thrombin kcat /Km (thrombin): 542 M/s
AA: amidolytic activity (maximum) ([1]; [S] 200 μM): 350.62 mOD/min
PT: prothrombinase concentration (maximum) ([1]; [S] 200 μM): 1086 mOD/min
T: thrombin concentration (maximum) ([1]; [S] 200 μM): 335.47 mOD/min
t: time point at which maximum of amidolytic activity is achieved ([1]; [S] 200 μM): 60 s
t: time point at which maximum of prothrombinase concentration is achieved ([1]; [S] 200 μM): 24 s
t: time point at which maximum of thrombin concentration is achieved ([1]; [S] 200 μM): 60 s
k2,M : k2 determined by the subsampling method ([1]; [S] 200 μM in plasma): 0.220 min⁻¹
AA: amidolytic activity (maximum) ([1]; [S] 500 μM): 376.42 mOD/min
PT: prothrombinase concentration (maximum) ([1]; [S] 500 μM): 1122 mOD/min
T: thrombin concentration (maximum) ([1]; [S] 500 μM): 359.48 mOD/min
t: time point at which maximum of amidolytic activity is achieved ([1]; [S] 500 μM): 60 s
t: time point at which maximum of prothrombinase concentration is achieved ([1]; [S] 500 μM): 24 s
t: time point at which maximum of thrombin concentration is achieved ([1]; [S] 500 μM): 60 s
k2,M : k2 determined by the subsampling method ([1]; [S] 500 μM in plasma): 0.192 min⁻¹
AA: amidolytic activity (maximum) ([1]; [S] 1000 μM): 409.85 mOD/min
PT: prothrombinase concentration (maximum) ([1]; [S] 1000 μM): 1149 mOD/min
T: thrombin concentration (maximum) ([1]; [S] 1000 μM): 396.23 mOD/min
t: time point at which maximum of amidolytic activity is achieved ([1]; [S] 1000 μM): 60 s
t: time point at which maximum of prothrombinase concentration is achieved ([1]; [S] 1000 μM): 24 s
t: time point at which maximum of thrombin concentration is achieved ([1]; [S] 1000 μM): 60 s
k2,M : k2 determined by the subsampling method ([1]; [S] 1000 μM in plasma): 0.169 min⁻¹
influence on the prothrombinase complex / coagulation cascade [1]: no inhibition of the prothrombinase activity
Factor Xa kcat (factor Xa): 0.42 s⁻¹
Factor Xa kcat /Km (factor Xa): 192 M/s
Km (factor Xa): 2190 µM

(k1,corr) = k1,corr divided by μM AT-III (euglobulin thrombin; [S] 200 μM in plasma): 18300 M⁻¹ s⁻¹
k1,corr : k1 after correcting for k2,M and 0.170 (euglobulin thrombin; [S] 200 μM in plasma): 1.590 min⁻¹
k1 : AT-III dependent decay of thrombin (euglobulin thrombin; [S] 200 μM in plasma): 1.729 min⁻¹
k2 : α2 M dependent decay of thrombin (euglobulin thrombin; [S] 200 μM in plasma): 0.229 min⁻¹
koverall (euglobulin thrombin; [S] 200 μM in plasma): 1.958 min⁻¹
t1/2 (euglobulin thrombin; [S] 200 μM in plasma): 21.24 s
(k1,corr) = k1,corr divided by μM AT-III (euglobulin thrombin; [S] 500 μM in plasma): 16600 M⁻¹ s⁻¹
k1,corr : k1 after correcting for k2,M and 0.170 (euglobulin thrombin; [S] 500 μM in plasma): 1.444 min⁻¹
k1 : AT-III dependent decay of thrombin (euglobulin thrombin; [S] 500 μM in plasma): 1.614 min⁻¹
k2 : α2 M dependent decay of thrombin (euglobulin thrombin; [S] 500 μM in plasma): 0.178 min⁻¹
koverall (euglobulin thrombin; [S] 500 μM in plasma): 1.792 min⁻¹
t1/2 (euglobulin thrombin; [S] 500 μM in plasma): 23.22 s
(k1,corr) = k1,corr divided by μM AT-III (euglobulin thrombin; [S] 1000 μM in plasma): 9100 M⁻¹ s⁻¹
k1,corr : k1 after correcting for k2,M and 0.170 (euglobulin thrombin; [S] 1000 μM in plasma): 0.790 min⁻¹
k1 : AT-III dependent decay of thrombin (euglobulin thrombin; [S] 1000 μM in plasma): 0.980 min⁻¹
k2 : α2 M dependent decay of thrombin (euglobulin thrombin; [S] 1000 μM in plasma): 0.124 min⁻¹
koverall (euglobulin thrombin; [S] 1000 μM in plasma): 1.104 min⁻¹
t1/2 (euglobulin thrombin; [S] 1000 μM in plasma): 37.70 s
Km (thrombin): 882 µM
Thrombin kcat (thrombin): 0.79 s⁻¹
Thrombin kcat /Km (thrombin): 894 M/s
AA: amidolytic activity (maximum) ([1]; [S] 200 μM): 388.15 mOD/min
PT: prothrombinase concentration (maximum) ([1]; [S] 200 μM): 1119 mOD/min
T: thrombin concentration (maximum) ([1]; [S] 200 μM): 371.24 mOD/min
t: time point at which maximum of amidolytic activity is achieved ([1]; [S] 200 μM): 60 s
t: time point at which maximum of prothrombinase concentration is achieved ([1]; [S] 200 μM): 24 s
t: time point at which maximum of thrombin concentration is achieved ([1]; [S] 200 μM): 60 s
k2,M : k2 determined by the subsampling method ([1]; [S] 200 μM in plasma): 0.198 min⁻¹
AA: amidolytic activity (maximum) ([1]; [S] 500 μM): 387.15 mOD/min
PT: prothrombinase concentration (maximum) ([1]; [S] 500 μM): 1090 mOD/min
T: thrombin concentration (maximum) ([1]; [S] 500 μM): 374.80 mOD/min
t: time point at which maximum of amidolytic activity is achieved ([1]; [S] 500 μM): 60 s
t: time point at which maximum of prothrombinase concentration is achieved ([1]; [S] 500 μM): 24 s
t: time point at which maximum of thrombin concentration is achieved ([1]; [S] 500 μM): 60 s
k2,M : k2 determined by the subsampling method ([1]; [S] 500 μM in plasma): 0.178 min⁻¹
AA: amidolytic activity (maximum) ([1]; [S] 1000 μM): 456.42 mOD/min
PT: prothrombinase concentration (maximum) ([1]; [S] 1000 μM): 1346 mOD/min
T: thrombin concentration (maximum) ([1]; [S] 1000 μM): 443.82 mOD/min
t: time point at which maximum of amidolytic activity is achieved ([1]; [S] 1000 μM): 60 s
t: time point at which maximum of prothrombinase concentration is achieved ([1]; [S] 1000 μM): 24 s
t: time point at which maximum of thrombin concentration is achieved ([1]; [S] 1000 μM): 60 s
k2,M : k2 determined by the subsampling method ([1]; [S] 1000 μM in plasma): 0.144 min⁻¹
Factor Xa kcat (factor Xa): 4.69 s⁻¹
Factor Xa kcat /Km (factor Xa): 491 M/s
Km (factor Xa): 9550 µM
SMILES: CC(C)[C@H](NC(=O)OCCS(C)(=O)=O)C(=O)N[C@@H](CCCNC(=N)N)C(=O)Nc1ccc([N+](=O)[O-])cc1.Cl [Msc-Val-Arg-pNA.HCl]
influence on the prothrombinase complex / coagulation cascade [1]: no inhibition of the prothrombinase activity
